This test addresses T1, factor D (Homo sapiens, UniProt P00746).
T1 construct: made in house; host or cells: E. coli
Nature of the test: factor D inhibition assay of Biological Example 2. Format: biochemical.
T1 sequence (P00746 26-253): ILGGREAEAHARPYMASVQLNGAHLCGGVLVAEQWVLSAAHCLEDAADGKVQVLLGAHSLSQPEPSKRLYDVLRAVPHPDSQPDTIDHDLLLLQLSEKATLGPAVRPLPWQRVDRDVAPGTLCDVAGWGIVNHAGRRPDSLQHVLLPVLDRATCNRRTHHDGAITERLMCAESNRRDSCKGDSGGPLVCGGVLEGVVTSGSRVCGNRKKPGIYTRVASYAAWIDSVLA
For orientation: IC50 means the concentration needed to halve the response being measured. Low readings indicate greater potency, high ones weaker potency. Take `NCc1cccc(-c2cccc(COc3ccc(Br)cc3CC(=O)O)c2)c1` [Example 168, 2-(2-((3′-(Aminomethyl)-[1,1′-biphenyl]-3-yl)methoxy)-5-bromophenyl)acetic acid]: the IC50 was 27 nM.

In the case of `C[C@@H](N)c1cccc(-c2cc(COc3ccccc3CC(=O)O)cc(OCc3ccncn3)c2)c1F` [Example 214-J], the half-maximal inhibitory concentration (IC50) came to 9 nM. Against the preceding compound, the IC50 is about 3-fold lower.

`N[C@H](CO)c1cccc(-c2cc(COc3ccccc3CC(=O)O)cc(C(O)C3CCCCC3)c2)c1` (single isomer, unassigned) [116-I b) (tr = 4.0 min)] returned an IC50 of 26 nM.

As for `N[C@H](CO)c1cccc(-c2cc(COc3ccccc3CC(=O)O)cc(OC[C@H]3CCCO3)c2)c1F` [Example 231-F, 2-(2-((3′-((S)-1-amino-2-hydroxyethyl)-2′-fluoro-5-(((R)-tetrahydrofuran-2-yl)methoxy)-[1,1′-biphenyl]-3-yl)methoxy)phenyl)acetic acid], half-maximal inhibition (IC50) required 9 nM. Against the preceding compound, the IC50 is about 2.9-fold lower.

`C[C@@H](N)c1cccc(-c2cc(CO)cc(COc3ccccc3CC(=O)O)c2)c1F` [Example 120-B] gave an IC50 of 55 nM.

As for `COC[C@@H](N)c1cccc(-c2cccc(COc3ccccc3CC(=O)O)c2)c1` [Example 169, (S)-2-(2-((3′-(1-Amino-2-methoxyethyl)-[1,1′-biphenyl]-3-yl)methoxy)phenyl)acetic acid], inhibition was half-maximal at 33 nM (IC50).

For the compound `C[C@@H](N)c1cccc(-c2cc(COc3ccccc3CC(=O)O)cc(OCC3CCCCO3)c2)c1F` (stereo partly drawn) [Example 264, 2-(2-((3′-((R)-1-aminoethyl)-2′-fluoro-5-((tetrahydro-2H-pyran-2-yl)methoxy)-[1,1′-biphenyl]-3-yl)methoxy)phenyl)acetic acid], the half-maximal inhibitory concentration (IC50) stood at 15 nM.

Regarding `C[C@@H](N)c1cccc(-c2cc(COc3ccccc3CC(=O)O)cc(NCC3(C)CC3)c2)c1F` [Example 227, (R)-2-(2-((3′-(1-aminoethyl)-2′-fluoro-5-(((1-methylcyclopropyl)methyl)amino)-[1,1′-biphenyl]-3-yl)methoxy)phenyl)acetic acid], the half-maximal inhibitory concentration (IC50) came to 10 nM.

The compound `C[C@@H](O)[C@@H](N)c1cccc(-c2cccc(COc3ccccc3CC(=O)O)c2)c1` [Example 190-G] returned a half-inhibitory concentration (IC50) of 122 nM.

Compound `N[C@H](C(=O)O)c1cccc(-c2cccc(COc3ccccc3CC(=O)O)c2)c1` [Example 193, (S)-2-Amino-2-(3′-((2-(carboxymethyl)phenoxy)methyl)-[1,1′-biphenyl]-3-yl)acetic acid] yielded an IC50 of 48 nM.

On to `Cc1cc(CN)cc(-c2cccc(COc3ccccc3CC(=O)O)c2)c1` [Example 292-B, 2-(2-((3′-(aminomethyl)-5′-methyl-[1,1′-biphenyl]-3-yl)methoxy)phenyl)acetic acid], for which the IC50 came out at 70 nM.

Compound `N[C@H](CO)c1cccc(-c2ccc(OC(F)(F)F)c(COc3ccccc3CC(=O)O)c2)c1` [Example 188, (S)-2-(2-((3′-(1-Amino-2-hydroxyethyl)-4-(trifluoromethoxy)-[1,1′-biphenyl]-3-yl)methoxy)phenyl)acetic acid] had a half-inhibitory concentration (IC50) of 17 nM.

The compound `N[C@H](CO)c1cccc(-c2cccc(COc3ccccc3CC(=O)O)c2)c1F` [Example 142-E] gave an IC50 of 8 nM.

`N=C(N)c1cccc(-c2cccc(C(=O)Nc3ccccc3CC(=O)O)c2)c1` [Example 10-B, 2-(2-(3′-Carbamimidoyl-[1,1′-biphenyl]-3-ylcarboxamido)phenyl)acetic acid]: the midpoint of inhibition, the IC50, lay at 396 nM.

Turning to `C[C@H](N)c1cccc(-c2cc(COc3ccccc3CC(=O)O)cc(OCc3cncn3C)c2)c1F` [Example 214-P], the IC50 came out at 14 nM.

Take `NCc1cccc(-c2cc(N3CCN(c4ccccc4)CC3)cc(C(=O)Nc3ccccc3CC(=O)O)n2)c1` [Example 51, 2-(2-(6-(3-(Aminomethyl)phenyl)-4-(4-phenylpiperazin-1-yl)picolinamido)phenyl)acetic acid]: the half-inhibitory concentration (IC50) was found to be 6 nM.

`C[C@@H](N)c1cccc(-c2cc(COc3ccccc3CC(=O)O)cc(COC(F)F)c2)c1F` [Example 120-X] displayed an IC50 of 4 nM.

In the case of `NCc1ccnc(-c2cccc(COc3ccccc3CC(=O)O)c2)n1` [Example 158-C, 2-(2-((3-(4-(Aminomethyl)pyrimidin-2-yl)benzyl)oxy)phenyl)acetic acid], 1790 nM corresponded to half-maximal inhibition (IC50).

On to `N[C@H](CO)c1cc(F)cc(-c2cccc(COc3ccccc3CC(=O)O)c2)c1` [Example 190-A], for which the half-maximal inhibitory concentration (IC50) amounted to 41 nM.

Turning to `NCc1cc(F)cc(-c2cccc(C(=O)Nc3ccc(F)cc3CC(=O)O)c2)c1` [Example 21-J], the IC50 was determined as 517 nM.

In turn, `C[C@@H](N)c1cccc(-c2cc(COc3ccccc3CC(=O)O)ccc2F)c1` [Example 124, (R)-2-(2-((3′-(1-Aminoethyl)-6-fluoro-[1,1′-biphenyl]-3-yl)methoxy)phenyl)acetic acid] returned a concentration for half-maximal inhibition (IC50) of 99 nM.

On to `C[C@@H](N)c1cccc(-c2cc(CCC3CCCC3)cc(COc3ccccc3CC(=O)O)c2)c1F` [Example 237, (R)-2-(2-((3′-(1-aminoethyl)-5-(2-cyclopentylethyl)-2′-fluoro-[1,1′-biphenyl]-3-yl)methoxy)phenyl)acetic acid], for which the midpoint of inhibition, the IC50, lay at 11 nM.

In the case of `N[C@H](CCO)c1cccc(-c2cccc(C(=O)Nc3ccccc3CC(=O)O)c2)c1` [Example 88, (R)-2-(2-(3′-(1-Amino-3-hydroxypropyl)-[1,1′-biphenyl]-3-ylcarboxamido)phenyl)acetic acid], the concentration for half-maximal inhibition (IC50) was 958 nM. Compared with the last compound, the IC50 is about 87-fold higher.

The compound `C[C@@H](N)c1cccc(-c2cc(Cl)cc(COc3ccccc3CC(=O)O)c2)c1F` [Example 216-S] came in with an IC50 of 21 nM.

In the case of `NCc1cc(F)cc(-c2cccc(C(=O)Nc3cc(Br)ccc3CC(=O)O)c2)c1` [Example 21-A], half-maximal inhibition (IC50) required 414 nM.

`C[C@@H](N)c1cccc(-c2cc(COc3ccccc3CC(=O)O)cc(N(C)C[C@@H]3CCCO3)c2)c1F` [Example 216-H] had a 50% inhibitory concentration (IC50) of 5 nM. Against the preceding compound, the IC50 is about 83-fold lower.

`C[C@@H](N)c1cccc(-c2ccc(Cl)c(COc3ccccc3CC(=O)O)c2)c1F` [Example 275, (R)-2-(2-((3′-(1-aminoethyl)-4-chloro-2′-fluoro-[1,1′-biphenyl]-3-yl)methoxy)phenyl)acetic acid] gave a half-inhibitory concentration (IC50) of 13 nM.

In turn, `NCc1cccc(-c2csc(C(=O)Nc3ccccc3CC(=O)O)n2)c1` [Example 26-B, 2-(2-(4-(3-(Aminomethyl)phenyl)thiazole-2-carboxamido)phenyl)acetic acid] registered a 50% inhibitory concentration (IC50) of 94 nM. This IC50 is about 7.2-fold higher than that of the compound before.

For the compound `C[C@@H](N)c1cccc(-c2cc(COc3ccccc3CC(=O)O)cc(S(C)(=O)=O)c2)c1` [Example 251, (R)-2-(2-((3′-(1-aminoethyl)-5-(methylsulfonyl)-[1,1′-biphenyl]-3-yl)methoxy)phenyl)acetic acid], half-maximal inhibition (IC50) was put at 158 nM.

With `C[C@@H](N)c1cccc(-c2cc(NC[C@@H]3CCCO3)cc(N(C)Cc3ccccc3CC(=O)O)c2)c1F` [Example 216-AB], the IC50 was determined as 55 nM.

Turning to `NCc1cccc(-c2cc(COc3ccccc3CC(=O)O)cc(OC[C@H]3CCCO3)c2)c1` [Example 135, (R)-2-(2-((3′-(Aminomethyl)-5-((tetrahydrofuran-2-yl)methoxy)-[1,1′-biphenyl]-3-yl)methoxy)phenyl)acetic acid], the IC50 is 5 nM.

`NCc1cc(F)cc(-c2cc(OC[C@@H]3CCCO3)cc(C(=O)Nc3ccccc3CC(=O)O)c2)c1` [Example 15-B, (S)-2-(2-(3′-(Aminomethyl)-5′-fluoro-5-((tetrahydrofuran-2-yl)methoxy)-[1,1′-biphenyl]-3-ylcarboxamido)phenyl)acetic acid] registered an IC50 of 9 nM.

In turn, `CCNc1ccc(CC(=O)O)c(OCc2cccc(-c3cccc(CN)c3)c2)c1` [Example 294-E] came in with an IC50 of 490 nM.

In turn, `NC(CF)c1cccc(-c2cccc(COc3ccccc3CC(=O)O)c2)c1F` (centres unmarked) [Example 215, 2-(2-((3′-(1-amino-2-fluoroethyl)-2′-fluoro-[1,1′-biphenyl]-3-yl)methoxy)phenyl)acetic acid] showed a half-inhibitory concentration (IC50) of 8 nM.

For `NC(CO)c1cccc(-c2cccc(C(=O)Nc3ccccc3CC(=O)O)c2)c1` (racemic) [Example 86, (±)-2-(2-(3′-(1-Amino-2-hydroxyethyl)-[1,1′-biphenyl]-3-ylcarboxamido)phenyl)acetic acid], the half-inhibitory concentration (IC50) stood at 1260 nM. This IC50 lies about 160-fold higher than the previous one.

Compound `C[C@@H](N)c1cccc(-c2cc(COc3ccccc3CC(=O)O)cc(OCC3(C)COC3)c2)c1F` [Example 262, (R)-2-(2-((3′-(1-aminoethyl)-2′-fluoro-5-((3-methyloxetan-3-yl)methoxy)-[1,1′-biphenyl]-3-yl)methoxy)phenyl)acetic acid] yielded an IC50 of 41 nM.

In turn, `N[C@H](CO)c1cccc(-c2cc(COc3ccccc3CC(=O)O)ccc2F)c1` [Example 122, (S)-2-(2-((3′-(1-Amino-2-hydroxyethyl)-6-fluoro-[1,1′-biphenyl]-3-yl)methoxy)phenyl)acetic acid] came in with an IC50 of 15 nM.

Compound `Cc1c(COc2ccccc2CC(=O)O)cccc1-c1cccc([C@@H](C)N)c1` [Example 116-N] came in with a 50% inhibitory concentration (IC50) of 52500 nM.

On to `NCc1nccc(-c2cccc(COc3ccccc3CC(=O)O)c2)n1` [Example 142-J], for which half-maximal inhibition (IC50) required 67 nM.

The compound `C[C@@H](N)c1cccc(-c2cc(COc3ccccc3CC(=O)O)cc(NC[C@H]3CCCO3)c2)n1` [Example 225-C, 2-(2-((3-(6-((R)-1-aminoethyl)pyridin-2-yl)-5-((((R)-tetrahydrofuran-2-yl)methyl)amino)benzyl)oxy)phenyl)acetic acid] showed an IC50 of 16 nM.

As for `CN(C)C(c1cc(COc2ccccc2CC(=O)O)cc(-c2cccc(CN)c2)c1)C(F)(F)F` (centres unmarked) [Example 208-B], the 50% inhibitory concentration (IC50) was found to be 27 nM.

Regarding `CCC[C@@H](N)c1cccc(-c2cc(COc3ccccc3CC(=O)O)cc(NCC3CC3)c2)c1F` [Example 199-B], inhibition was half-maximal at 69 nM (IC50). Compared with the last compound, the IC50 is about 2.6-fold higher.

`NCc1cccc(-c2cc(-c3ccccc3)cc(C(=O)Nc3ccccc3CC(=O)O)n2)c1` [Example 52, 2-(2-(6-(3-(Aminomethyl)phenyl)-4-phenylpicolinamido)phenyl)acetic acid] displayed a half-maximal inhibitory concentration (IC50) of 7 nM.

`COC(C)c1cc(COc2ccccc2CC(=O)O)cc(-c2cccc([C@@H](C)N)c2)c1` (mixture of isomers) [Example 119-B, 2-(2-((3′-((R)-1-Aminoethyl)-5-(1-methoxyethyl)-[1,1′-biphenyl]-3-yl)methoxy)phenyl)acetic acid (mixture of diastereomers)] displayed a 50% inhibitory concentration (IC50) of 13 nM.
